Measured values as given in patent US20110135611A1 (priority 2009, published 2011).
Read-outs that look alike come from different tables or passages of the source.

Assays:
GABAA receptors = assay type: cell-based, mice; settings: for GABAergic miniature SSCs (mSSCs): BMI 100 μM, in presence of DNQX, D-AP5 and TTX, apoE3-KI and apoE4-KI mice
From the text: ApoE3-KI and apoE4-KI mice (2-3 months) were sacrificed 2 weeks after retrovirus-GFP injection and processed for slice preparation as described (Duan et al., 2007; Ge et al., 2006a). Whole-cell voltage-clamp recordings from visually identified GFP^+ neurons (2 weeks after injection) were obtained with an infrared differential interference contrast video microscopy system.
Next the level of GABAergic synaptic innervation, which is critical for neuronal development of newborn hippocampal cells (Ge et al., 2006a; Ge et al., 2006b; Liu et al., 2006; Tozuka et al., 2005), was assessed. GABAergic miniature SSCs (mSSCs) were recorded from GFP^+ neurons (resting membrane potential Vm=−65 mV) 2 weeks after injection of the retrovirus-GFP construct. These studies were conducted in the presence of 6,7-dinitroquinoxaline-2,3-dione (DNQX) (20 μM) and D-(−)-2-amino-5-phosphonovaleric acid (D-AP5) (50 μM) to block glutamate-mediated currents and tetrodotoxin (TTX) (1 μM) to block action potential-mediated GABA release.
In the presence of DNQX and D-AP5, GABA-evoked postsynaptic currents (ePSCs) recorded from GFP^+ neurons were generated by electrical stimulation of GABAergic axons in the molecular layer of the dentate gyrus. This indicates a functional coupling between hilar GABAergic interneurons and newborn neurons in both apoE3-KI and apoE4-KI mice. However, the ePSC peak amplitude was ˜40% lower in apoE4-KI mice (FIGS. 6C, 6D, and 6F). This finding is consistent with a reduction of presynaptic GABAergic inputs onto newborn neurons available for electrical activation in apoE4-KI mice. […] This finding reconfirms the intact GABAA receptor function in newborn neurons of apoE4-KI mice.

NSC proliferation = assay: Effect of GABAA receptor potentiator or antagonist treatment on NSC proliferation (BrdU+ cells in SGZ); assay type: in vivo, mice; settings: 1 day after BrdU injection
Method: (§1) Female mice (3, 6-7, or 12-13 months of age) received two intraperitoneal injections of BrdU (Sigma, 100 mg/kg body weight) 6 h apart. One day, 3 days, and 4 and 10 weeks after the second injection, the brains were perfused with phosphate-buffered saline and collected.
To investigate the effect of GABAA receptor potentiator or antagonist treatment on NSC proliferation, female mice (6-7 months of age) were treated with once-daily intraperitoneal injections of pentobarbital (PB) (Sigma, 50 mg/kg; apoE4-KI mice) or picrotoxin (PTX) (Sigma, 4 mg/kg; apoE3-KI mice). Twenty-four hours after the last treatment, mice received two injections of BrdU (100 mg/kg) 6 h apart and were sacrificed 1 day later. […]
Mouse brains were fixed in 4% paraformaldehyde for 3 days, and coronal sections (40 μm) were cut continuously throughout the entire hippocampus with a vibratome. Single- or double-immunostained cells on both sides of the hippocampus of all stained sections were counted and calculated. Numbers of newborn cells (BrdU^+) and immature neurons (BrdU^+ and Dcx^+) in the SGZ were determined 1 or 3 days after BrdU injection; numbers of surviving newborn cells (BrdU^+) and mature neurons (BrdU^+ and NeuN^+) in the SGZ were determined 4 or 10 weeks after injection. Newborn neurons that had migrated from the SVZ to the OB were quantified 4 weeks after BrdU injection as reported (Galvão et al., 2008). […]

neuronal maturation = assay: Effect of GABAA receptor potentiator or antagonist treatment on neuronal maturation (SGZ, 4 weeks after BrdU); assay type: in vivo, mice
Method: as §1
To investigate the effect of GABAA receptor potentiator or antagonist treatment on NSC proliferation, female mice (6-7 months of age) were treated with once-daily intraperitoneal injections of pentobarbital (PB) (Sigma, 50 mg/kg; apoE4-KI mice) or picrotoxin (PTX) (Sigma, 4 mg/kg; apoE3-KI mice). Twenty-four hours after the last treatment, mice received two injections of BrdU (100 mg/kg) 6 h apart and were sacrificed 1 day later. To investigate the effect of GABAA receptor potentiator or antagonist treatment on neuronal maturation, female mice (6-7 months of age) received two injections of BrdU 6 h apart. Twenty-four hours later, apoE3-KI mice received daily injections of PTX for 7 consecutive days, and apoE4-KI mice received daily injections of PB for 28 consecutive days. Mice were sacrificed 4 weeks after the second BrdU injection.
Mouse brains were fixed in 4% paraformaldehyde for 3 days, and coronal sections (40 μm) were cut continuously throughout the entire hippocampus with a vibratome. Every eighth section was immunostained with various primary and secondary antibodies and examined with a laser-scanning confocal system.
Immunostaining was carried out with anti-BrdU (mouse monoclonal, Chemicon, 1:400; or rat monoclonal, Abcam, 1:400) and/or with antibodies against other cellular markers, including mouse anti-NeuN (Chemicon, 1:400), mouse anti-nestin (Chemicon, 1:50), goat anti-Dcx (Santa Cruz Biotechnology, 1:40), goat anti-Sox2 (Santa Cruz Biotechnology, 1:350), rabbit anti-GFAP (Invitrogen, 1:400), mouse anti-β-III-tubulin (Promega, 1:800), mouse anti-S100β (Abcam, 1:400), and rat anti-Noggin (R&D Systems, 1:200). Corresponding secondary antibodies (Texas Red and fluorescein, 1:250, Vector Laboratories) were used. For Ki67, somatostatin, and GAD67 immunostaining, rabbit anti-Ki67 (Bethyl Labs, 1:1000), rat anti-somatostatin (Chemicon, 1:100), and mouse anti-GAD67 (Chemicon, 1:1500) were used with biotinylated goat anti-rabbit IgG (1:250), rabbit anti-rat IgG (1:250), and rabbit anti-mouse IgG (1:250) as secondary antibodies and diaminobenzadine as a chromagen (Dako).
Mouse brains were fixed in 4% paraformaldehyde for 3 days, and coronal sections (40 μm) were cut continuously throughout the entire hippocampus with a vibratome. Single- or double-immunostained cells on both sides of the hippocampus of all stained sections were counted and calculated. Numbers of newborn cells (BrdU^+) and immature neurons (BrdU^+ and Dcx^+) in the SGZ were determined 1 or 3 days after BrdU injection; numbers of surviving newborn cells (BrdU^+) and mature neurons (BrdU^+ and NeuN^+) in the SGZ were determined 4 or 10 weeks after injection. Newborn neurons that had migrated from the SVZ to the OB were quantified 4 weeks after BrdU injection as reported (Galvão et al., 2008). The number of GABAergic interneurons in the hilus of the dentate gyrus was determined by counting GAD67- and somatostatin-positive cells.

[1] = tested on: dendritic development of newborn neurons; assay: Dendritic development of retrovirus-GFP labelled newborn hippocampal neurons; assay type: in vivo, mice
NSCs from apoE-KO mice = assay: NSC culture and neural differentiation in vitro; assay type: cell-based; settings: neuronal differentiation conditions, Noggin 500 ng/ml
Method: NSCs were isolated from brains of apoE3-KI, apoE4-KI, wildtype, and apoE-KO mice at postnatal day 1 (P1) using a modified neurosphere method (Brewer and Torricelli, 2007; Ray and Gage, 2006). The expression of apoE and Noggin in NSCs with different apoE genotypes was assessed by anti-apoE and anti-Noggin (R&D Systems) western blots of cell lysates. Neural differentiation of the established NSCs with different apoE genotypes was induced in vitro as reported (Song et al., 2002). In some experiments, recombinant mouse Noggin (R&D Systems) was added at 500 ng/ml into the medium during neural differentiation. Neuronal and astrocytic differentiation of NSCs at 7 days was determined and quantified.

[2] = apoE3-KI mice, daily PTX for 7 days, 4 weeks after BrdU injection
[3] = apoE4-KI mice, daily PB for 4 weeks

C[N+]1(C)CCc2cc3c(cc2[C@H]1[C@@H]1OC(=O)c2c1ccc1c2OCO1)OCO3.[I-] [Bicuculline methoiodide]
ePSCs (evoked postsynaptic currents) (GABAA receptors; BMI 100 μM bath application, in presence of DNQX and D-AP5): Currents were blocked | GABAergic miniature SSCs (mSSCs) (GABAA receptors): abolished the mSSCs | GABAergic miniature SSCs (mSSCs) (GABAA receptors; listed as BMI): The mSSCs were blocked

picrotoxin
number of newborn cells (BrdU+) in the SGZ (NSC proliferation; apoE3-KI mice, PTX 4 mg/kg i.p. once daily for 3 days): increased the number of newborn cells 1 day after BrdU injection to a level similar to that in untreated apoE4-KI mice | number of immature neurons (neuronal maturation; [2]): the number of immature neurons was increased | number of mature neurons (neuronal maturation; [2]): the number of mature neurons was decreased | survival of newborn cells (neuronal maturation; [2]): the survival of newborn cells was unaltered

NCCCC(=O)O [GABA, gamma-aminobutyric acid]
current amplitudes evoked by focal application (GABAA receptors; exogenous GABA 500 μM, GFP+ neurons from apoE3-KI vs apoE4-KI mice): evoked similar current amplitudes in GFP^+ neurons from apoE3-KI and apoE4-KI mice

CCCC(C)C1(CC)C(=O)NC(=O)NC1=O (stereo not drawn) [pentobarbital]
length of dendritic branches of newborn neurons ([1]; apoE3-KI mice treated with PB): did not alter the length or number of dendritic branches | number of dendritic branches of newborn neurons ([1]; apoE3-KI mice treated with PB): did not alter the length or number of dendritic branches | dendritic branch number of newborn neurons ([1]; apoE4-KI mice treated with PB): increases in both dendritic length and branch number to levels similar to those in wildtype and apoE3-KI mice | dendritic length of newborn neurons ([1]; apoE4-KI mice treated with PB): increases in both dendritic length and branch number to levels similar to those in wildtype and apoE3-KI mice | number of dendritic branches of newborn neurons ([1]; wildtype mice treated with PB): trend toward significant increase (p=0.053) | number of newborn cells (BrdU+) in the SGZ (NSC proliferation; apoE4-KI mice, PB 50 mg/kg i.p. once daily): decreased the number of newborn cells to levels similar to those of wildtype and untreated apoE3-KI mice | number of immature neurons (neuronal maturation; [3]): decreased the number of immature neurons | number of mature neurons (neuronal maturation; [3]): increased the number of mature neurons

B1: recombinant mouse Noggin: recombinant mouse Noggin (R&D Systems), bone-morphogenetic protein (BMP) inhibitor (protein, UniProt P97466 28-232, looked up)
Noggin: QHYLHIRPAPSDNLPLVDLIEHPDPIFDPKEKDLNETLLRSLLGGHYDPGFMATSPPEDRPGGGGGPAGGAEDLAELDQLLRQRPSGAMPSEIKGLEFSEGLAQGKKQRLSKKLRRKLQMWLWSQTFCPVLYAWNDLGSRFWPRYVKVGSCFSKRSCSVPEGMVCKPSKSVHLTVLRWRCQRRGGQRCGWIPIQYPIISECKCSC
astrogenesis (NSCs from apoE-KO mice): inhibited astrogenesis | neurogenesis (NSCs from apoE-KO mice): stimulated neurogenesis to levels similar to those of NSCs from wildtype mice
